In data set [1] the test system is NIH3T3 cells. Put plainly: Anchorage-independent growth (soft agar) assay in NIH3T3 cells. The data set is classed as cell-based. The settings on record: 5 weeks. Here is the method: Anchorage-independent Growth Assay. NIH3T3 cells were similarly transfected as above. The cells were trypsinized, and 2.5×10^3 cells were suspended in triplicate in top soft agar layer (DMEM complete medium containing 0.35% agar) and seeded into 60-mm plates pre-coated by a 3-mm layer of lower agar (DMEM complete medium containing 0.7% agar). The cells were fed every 5 days for 5-6 weeks and finally stained with MTT (SIGMA). All the experiments were performed in triplicate and a representative of 3 independent experiments was reported in the figure(s) and averages±standard deviation in the table.

Data set [2] deals with NIH3T3 cells. Description: Cell proliferation, parental NIH3T3. The data set is classed as cell-based. Conditions: non-transformed NIH3T3, 0-96 hours. Here is the method:
(§1) Cell Proliferation. Cells were collected and examined for cell number by trypan blue exclusion and hemocytometer counting under microscope at 0 h, 24 h, 48 h, 72 h and 96 h. All the samples were performed in triplicate and the averages of 3 independent experiments were reported.

Data set [3] relates to A-549 cells. Description: Cell proliferation, A-549. Conditions: A-549, 0-96 hours. It is filed as cell-based, human. Here is the method:
as §1

In data set [4] the test system is H-Ras/NIH3T3 cells. Description: 5-FU-induced apoptosis (Annexin V, flow cytometry) in H-Ras-transformed NIH3T3 cells. It is filed as cell-based. Here is the method:
Apoptosis Assay. Cells were collected by trypsinization, washed in wash buffer and stained with Annexin V and 7-AAD according to manufacturer's recommendation (PharMingen, San Diego, Calif.). Data acquisition and analysis was performed by the Flow Cytometry Core Facility at the H. Lee Moffitt Cancer Center (Tampa, Fla.). All the samples were performed in duplicate and a representative of 3 independent experiments were reported here.

For data set [5], the system named is A-549 cells. Put plainly: Anoikis assay in A-549 cells. The data set is classed as cell-based, human. The settings on record: A-549, poly-HEMA plates, 24 hr; control 40%. Here is the method:
(§2) Anoikis Assay. Cells were collected by trypsinization, washed twice with PBS, and re-suspended in serum-free medium containing 0.5% BSA; 5.0×10^5 cells were then seeded in triplicates into 60-mm plates pre-coated with poly(2-hydroxyethylmethacrylate) (poly-HEMA, SIGMA) according to the data sheet of the agents. 24 hrs later the cellular viability was determined by trypan blue exclusion.

In data set [6] the test system is H-Ras/NIH3T3 cells. Put plainly: Anoikis assay in H-Ras-transformed NIH3T3 cells. It is filed as cell-based. Conditions: H-Ras-transformed NIH3T3, poly-HEMA plates. Here is the method:
as §2

Data set [7] has as its system H-Ras/3T3 cells. Description: Migration through collagen type I coated transfilters, H-Ras/3T3 cells. It is filed as cell-based. The settings on record: H-Ras/3T3 cells (FIG. 8B). Here is the method:
(§3) Parental NIH3T3 (FIG. 8A) were transiently transfected with pcDNA3 vector control, H-Ras61L, CA-PI3K, or CA-Akt in the presence or absence of RhoA or RhoB or pcDNA3 for 36 hours. The cells were then split and cultured for another 4 weeks. The plates were examined for focus formation by staining. H-Ras/3T3 cells (FIG. 8B) and PANC-1 cells (FIG. 8C) were transiently transfected with pcDNA3 vector control, CA-Akt, or WT-Akt in the presence or absence of RhoA, RhoB, or pcDNA3 for 36 hours. The cells were then split and analyzed for their migration capabilities through collagen type I coated transfilters as described in the Materials and Methods section. NIH3T3 cells (FIGS. 8D and 8E) were transiently transfected with pcDNA3 vector control, H-Ras61L, CA-Akt, or WT-Akt in the presence or absence of RhoA, RhoB, or pcDNA3 for 36 hours. The monolayers were then scratched with a 20 μl pipette tip and micro-photographed at the time points indicated for analyzing their capability to migrate into and fill the wounded area.

Another data set relates to PANC-1 cells. Description: Migration through collagen type I coated transfilters, PANC-1 cells. It is filed as cell-based, human. Conditions: PANC-1 cells (FIG. 8C). Here is the method:
as §3

The next data set deals with MMP-2. Put plainly: MMP-2 expression in conditioned medium of PANC-1 and PC3 cells (Western blotting). Conditions: conditioned medium (FIG. 9C). It is filed as cell-based, human. Here is the method:
(§4) HRas/3T3 cells (FIG. 9A) and PANC-1 cells (FIG. 9B) were transiently transfected with pcDNA3 vector control, H-Ras61L, CA-Akt, or WT-Akt in the presence or absence of RhoA, RhoB, or pcDNA3 for 36 hours. The cells were then split and analyzed for their invading capabilities through […]-coated transfilters as described in the Materials and Methods section. PANC-1 and PC3 cells (FIG. 9C) were transiently transfected with pcDNA3, with H-Ras61L in the presence or absence of RhoA, or RhoB for 36 hours. The cells were then serum-starved for another 36 hours; the conditioned medium was collected and 20 μg protein were analyzed for MMP-2 expression by Western Blotting.
One pivotal step in these processes is the ability of cancer cells to cut through the extracellular matrix. This is accomplished by a cascade of proteinases, among which matrix metalloproteinases (MMPs) play a pivotal role (Yoon, S. O. et al., J Biochem Mol Biol, 2003, 36:128-37; Stamenkovic, I. Semin Cancer Biol, 2000, 10:415-33). […] To this end, PANC-1 and PC3 cells were treated with LY294002, or transfected with pcDNA3-RhoA or RhoB, and the conditioned culture medium was collected and analyzed for MMP-2 expression by anti-MMP-2 Western blotting as described in the Materials and Methods section.

Data set [8] concerns H-Ras/3T3 cells. Description: Invasion through […]-coated transfilters, H-Ras/3T3 cells. The data set is classed as cell-based. The settings on record: H-Ras/3T3 cells (FIG. 9A). Here is the method: as §4
Whether RhoB can also antagonize cell invasion was evaluated. To this end, H-Ras/3T3 and PANC-1 cells were similarly transfected as above with various oncogenes along with RhoA or RhoB, then seeded onto […]-coated poly-hydrocarbonate filters mounted in the middle of a Boyden transwell apparatus as described under Methods. […] Furthermore, transfection with CA-Akt or WT-Akt enhanced invasion; and RhoB, not RhoA, inhibited this enhancement of invasion (FIGS. 9A and 9B).

The subject of another data set is RhoB protein levels. Description: RhoB protein level by Western blotting in NIH3T3 cells. The data set is classed as cell-based. The settings on record: NIH3T3, 5-FU for 36 hrs (FIG. 2C). On the technique in general: A western blot detects proteins with antibodies after separation by electrophoresis.

Where “and” joins values, the source holds several entries; their conditions need not be identical. Equal values may be shown once.

Protocol for RhoB protein levels: NIH3T3 cells were transiently transfected with various oncogenes or pcDNA3 vector control and cultured for 36 hrs; the pcDNA3-transfected cells were treated by either DMSO or 5-FU for 36 hrs. The cells were then lysed and analyzed for transfection efficiency by Western blotting with anti-HA or anti-Src antibody and for RhoB protein level with anti-RhoB antibody. […] NIH3T3 cells were transiently transfected with various Ras oncogenes or pcDNA3 vector control for 12 hrs, then treated by either DMSO, or 5-FU for another 36 hrs. The whole cell lysates were analyzed for RhoB protein level by Western blotting with anti-RhoB antibody.
Western Blot Analysis. Whole cell lysates were prepared in a lysis buffer containing 20 mM Tris-HCl (pH 7.5), 150 mM NaCl, 1% NP-40, 1 mM phenylmethylsulfonyl fluoride, 1.5 μg each of aprotinin and leupeptin per ml, 10 mM NaF, 10 mM NaPPi, 3 mM sodium vanadate, and 15 mM lycerolphosphate. Lysates were incubated 30 min on ice and centrifuged at 13,000×g for 10 min at 4° C. prior to SDS-PAGE and Western blotting. 50 μg of lysates was loaded for each sample.

“RhoB: low molecular weight GTPase; wild-type RhoB subcloned into HA-tagged pcDNA3 and ectopically expressed by transfection”: the “# of soft agar colonies” value was 21 and 21 ± 3 with NIH3T3 cells [1] (oncogene: H-Ras); 18 and 18 ± 5 in the data set on NIH3T3 cells [1] (oncogene: K-Ras); 26 and 26 ± 7 in the data set on NIH3T3 cells [1] (oncogene: N-Ras). In addition, the growth rate result in the data set on NIH3T3 cells [2] is reported as “not affected”; in the data set on A-549 cells [3] it was “inhibited the growth rate”. For the same molecule, the “percent of apoptosis induced by 5-FU after transfection” value in the data set on H-Ras/NIH3T3 cells [4] (H-Ras-transformed NIH3T3, transfected 24 hrs then 5-FU 48 hrs, control 16%) was determined as 37%. Besides, the “cell death on deprivation of substratum attachment (anoikis)” value in the data set with A-549 cells [5] turned out to be 78%. For the same molecule, in the data set with H-Ras/NIH3T3 cells [6], the anoikis entry was “enhanced anoikis”. Moreover, the “ability to migrate through collagen type I” value in the data set on H-Ras/3T3 cells [7] and in the data set on PANC-1 cells was “dramatically hindered” in each case. Besides, the MMP-2 protein secreted result in the data set on MMP-2 is reported as “remarkably reduced”.

In the case of “RhoA: closely related family member sharing 86% sequence identity with RhoB; wild-type, in HA-tagged pcDNA3, transfected as control”, the “# of soft agar colonies” value in the data set on NIH3T3 cells [1] (oncogene: H-Ras) was 77 and 77 ± 12; in the data set with NIH3T3 cells [1] (oncogene: K-Ras) it was 65 and 65 ± 7; in the data set on NIH3T3 cells [1] (oncogene: N-Ras) it was 89 and 89 ± 14. The growth rate entry in the data set with NIH3T3 cells [2] and with A-549 cells [3] was “enhanced the rate of growth” in each case. Besides, the “cell death on deprivation of substratum attachment (anoikis)” value in the data set on A-549 cells [5] is “protected these cells from anoikis”. The anoikis result in the data set on H-Ras/NIH3T3 cells [6] is “slightly protected from anoikis”. Besides, the “ability to migrate through collagen type I” value with H-Ras/3T3 cells [7] and in the data set with PANC-1 cells was “migrated” each time. Also, the “invasion through MATRIGEL” value with H-Ras/3T3 cells [8] was “invaded”. Also, the MMP-2 protein secreted result in the data set with MMP-2 is reported as “increased MMP-2 levels, but to a lesser extent”.

As for `O=c1[nH]cc(F)c(=O)[nH]1` [5-FU, 5-fluorouracil], the “induction of RhoB protein levels” value in the data set on RhoB protein levels is reported as 3 fold. For the same molecule, the apoptosis with H-Ras/NIH3T3 cells [4] (H-Ras-transformed NIH3T3, 5-FU 2.0 μM 48 hrs (FIG. 4B)) is 16-18%.

The values above are taken from patent US7629310B2, “RhoB as a suppressor of cancer cell growth, cell transformation, and metastasis” (University of South Florida, priority 2000, dated 2009).
